Like-named read-outs stand apart in the source and are kept apart here.
How the values were obtained:
[1] = pH 7.4
HCT116 = experiment: Inhibitory effect on cell growth, HCT116 cells; format: cell-based, human
Method: (§1) Cells are grown in McCoy's 5a medium with 1.5 mM L-glutamine supplemented with 10% FBS.

HT-29 cells = experiment: Inhibitory effect on cell growth (MTT assay), HT-29 cells; format: cell-based
Method: Using HT-29 cells, the effect of the polyal-SN38 conjugates on cell growth was evaluated.
as §1

[2] = Homo sapiens, HT-29, HT29, growth inhibition 72 hours post treatment, MTT

Molecule: PHF-GA-Gly-SN38 [Conjugate S2]
- Release half-lives of SN38 conjugates, T½ [1]: 18.5 h

Molecule: PHF-GA-Ala-SN38 [Conjugate S4]
- Release half-lives of SN38 conjugates, T½ [1]: 54.2 h

Molecule: PHF-SA-Gly-SN38 [Conjugate S1]
- Release half-lives of SN38 conjugates, T½ [1]: 2.0 h

Molecule: CCc1c2c(nc3ccc(OC(=O)N4CCC(N5CCCCC5)CC4)cc13)-c1cc3c(c(=O)n1C2)COC(=O)[C@]3(O)CC [Irinotecan]
- IC50 (HCT116; Homo sapiens, HCT-116): 4650 nM
- IC50 (HT-29 cells; [2]): 4430 nM

Molecule: CCc1c2c(nc3ccc(O)cc13)-c1cc3c(c(=O)n1C2)COC(=O)[C@]3(O)CC [SN38]
- IC50 (HCT116): 9 nM
- IC50 (HT-29 cells; read-out: HT29 IC50): 25 nM

Molecule: CC[C@@]1(O)C(=O)OCc2c1cc1n(c2=O)Cc2cc3ccccc3nc2-1 [Camptothecin (CPT), Camptothecin]
- IC50 (HCT116; Homo sapiens, HCT-116): 23 nM
- IC50 (HT-29 cells; [2]): 83 nM

Molecule: PHF-SA-Ala-SN38 [Conjugate S3]
- Release half-lives of SN38 conjugates, T½ [1]: 36.9 h
